In patent US7695426B2, “Methods for enhancing viability” (Biological Resources Pty Ltd, priority 2003, dated 2010):

Columns and labels:
mouse embryos [1] = assay: Co-treatment of embryos in vitro with PAF and PFT-α; type: cell-based; conditions: zygotes cultured 96 h; 10 nM PAF, 10 μM PFT-α or both
2-cell embryos = assay: Intracellular calcium response of embryos to exogenous PAF; type: cell-based, mouse; conditions: IVF embryos in comparison to fresh and ISF embryos
Description: Mammalian embryos express a receptor for PAF, and activation of this receptor elicits a transient increase in the embryo's intracellular calcium concentration (Emerson et al., 2000, Journal of Biological Chemistry 275, 21905-21913; Lu et al., 2003, Biology of Reproduction 69, 106-116).
Mouse embryos were incubated with exogenous PAF and the intracellular Ca^2+ concentration was determined as described by Emerson et al. (2000). Embryos tested were: (i) those fertilized in the reproductive tract and collected fresh from the reproductive tract (fresh); (ii) embryos produced by IVF and cultured in vitro (IVF); and (iii) embryos fertilized in the reproductive tract and cultured in vitro (ISF). […] This reduced signaling correlated with poor development of the embryos in vitro.

p53 mRNA = assay: RT-PCR of p53 mRNA in embryos incubated in α-amanitin; type: cell-based, mouse
Text: RT-PCR was used to compare the expression of p53 mRNA in fresh p53+/+ mouse embryos (embryos fertilised and grown in the reproductive tract) and IVF mouse embryos. For IVF embryos, the model uses a graded range of stress induced by IVF and culture under conditions of increasing growth factor deprivation. Primers were designed (5′-GGAGTCTTCCAGTGTGATGAT, 3′-GGG ACA GCC MG TCT GTT ATG) that successfully produced an RT-PCR product of the correct size (429 bp) and sequence (SUPAMAC) for the p53 gene. Groups of 5 embryos, oocytes or sperm were pooled. mRNA was extracted and RT-PCR performed.
p53 product was detected in oocytes, zygotes, 8-cell, morulae and blastocyst stage mouse embryos collected from the reproductive tract but not in epididymal sperm. In 2-cell embryos detection was variable. […] Quantitative RT-PCR of p53 was performed to compare expression of p53 mRNA in fresh and IVF embryos. Equivalent levels of RNA were found in the oocyte, zygote, morulae and blastocyst of fresh embryos; the levels were 50-70% lower in late 2-cell embryos than in other development stages (data not shown).

sperm and oocytes = assay: Treatment of mouse gametes with PFT-α during capacitation and fertilisation in vitro; type: cell-based
Description: (§1) Mouse IVF: Females superovulated by 5 IU pregnant mare serum gonadotrophin followed 48 h later by 5 IU human chorionic gonadotrophin. Oocytes were collected 13-15 h after hCG and washed. Epididymal sperm collected from the epididymides of male mice (14-35 weeks old) of proven fertility is immediately placed into 1 ml of medium. Sperm were allowed to disperse for 10 min at 37° C. and were then added to the oocytes at 0.1×10^6/ml. Fertilisation was performed in a final volume of 1 ml of medium. Oocytes and sperm were cultured together for 5 h at 37° C. in 5% CO2 in air. The oocytes were then retrieved, washed in Hepes-buffered HTF and their fertilisation status assessed by microscopic detection of pronuclei and polar bodies. Fertilised oocytes were transferred to drops of modified HTF medium under mineral oil and their development status assessed each 24 h.
PFT-α preparation, IVF and embryo culture was as previously described. The study used F1 (C57Bl6j×CBAj) males and females. PFT-α was added to sperm during its capacitation and during the process of fertilisation in vitro.
4-5 h after the addition of sperm to oocytes, the oocytes were washed free of sperm and PFT-α. They were examined for the presence of 2 pronuclei as evidence of successful fertilisation. Successfully fertilised oocytes were placed in culture in 10 μL of modified HTF media, 1 zygote per 10 μL drop. They were culture for 120 h and the proportion forming morphologically normal blastocysts were recorded. The blastocysts were fixed in 2% formaldehyde and stained with 5 μG Hoechst stain/ml. […]
The effect of dose of PFT-A on the proportion of oocytes fertilised, the proportion of zygotes that developed to morphological blastocyst and the number of cells in each blastocysts were recorded and are shown in FIGS. 4A, B and C respectively. The effect of PFT-A dose was assessed using the SPSS statistical package. The fertilisation rate and development rate were assessed using binary logistic regression analysis while cell numbers were assessed by univariate analysis using the general linear model.

mouse embryos [2] = assay: Culture of mouse zygotes (IVF or ISF) with PFT-α as media supplement; type: cell-based
Description: as §1
A recently developed selective inhibitor of p53, pifithrin-α (PFTα [2-(2-imino-4,5,6,7-tetrahydrobenzothiazol-3-yl)-1-p-tolylethanone], Sigma-Aldrich), is a small molecule that reversibly blocks p53-dependent transcriptional activation and apoptosis (Komarov et al., 1999, Science 285, 1733-1737). PFT-α was prepared initially by solubilising to a concentration of 10 mM in dimethylsolfoxide and diluted to working concentrations.
Zygotes were produced by either fertilization in vitro (IVF) or fertilisation in situ (ISF) and cultured for 96 hours in modified HTFM medium individually in […] drops. PFT-α was added as a media supplement over the dose range […]. The proportion of embryos developing to the blastocyst stage (FIG. 3A), the number of cells per normal blastocyst and the proportion of cells undergoing apoptosis (FIG. 3B), were assessed.

mouse embryos [3] = assay: Combined treatment of IGF-II and PFT-α on embryo development in vitro; type: cell-based; conditions: IVF zygotes cultured 96 h, 10 ng/ml IGF-II, 1 μM PFT-α, or both; for Cells/blastocyst: control 23 ± 4; for % blastocyst: control 31
Description: The IGF-II used was human recombinant insulin-like growth factor-II (expressed in E. Coli) (Sigma Chemical Co.), reconstituted with a minimal volume of 0.1M acetic acid and immediately diluted with modified-HTF to a concentration of 50 μg/ml. Aliquots were frozen at −70° C. Upon thawing, aliquots were serially diluted with modified-HTF.
Zygotes produced by IVF from F1 crosses were prepared and cultured as described above, with 1 embryo per […] drop of media. Zygotes were cultured for 96 h in modified HTFM medium individually in 10 μl drops. The proportion of embryos developing to morphologically normal blastocysts, the number of cells in each blastocyst and the number of apoptotic cells per blastocyst were assessed in media containing 10 ng/ml IGF-II, 1 μM PFT-α, or IGF-II+PFT-α.

bovine sperm = assay: Treatment of bovine sperm with PFT-α before insemination, blastocyst formation; type: cell-based; conditions: bovine sperm incubated 1 h with 0.3-3 μM PFT-α before insemination; Day 7; compared to control
Description: All embryo manipulations were performed at 39° C. except for oocyte harvesting and activation which was performed at room temperature. All procedures were performed in 4-well Nunc dishes in Tissue Culture Medium 199 (TCM-199) supplemented with HEPES (TCM-H TCM-199; Gibco™ BRL/Life Technologies, Melbourne, Victoria, Australia) without mineral oil overlay, unless otherwise indicated.
Bovine ovaries collected from 2 different local slaughterhouse, transported at 30-35° C. to the laboratory and washed on 39° C. physiologic saline (0.9% NaCl; Baxter Healthcare Pty., Ltd., NSW, Australia). Ovarian antral follicles (2-8 mm) were aspirated using an 18-gauge needle and collected into TCM-H with 30 IU ml^−1 heparin (Pharmacia & Upjohn Pty., Ltd., Perth, Wash., Australia) and 2% gamma radiated fetal bovine serum (FBS; JRH Biosciences Pty., Ltd., Melbourne, Victoria, Australia). Cumulus oocyte complexes (COCs) showing an even cytoplasm and surrounded by at least three layers of compact cumulus cells were collected from the follicular fluid. […]
Frozen/thawed semen from an elite bull was placed on a Percoll gradient and centrifuged at 600×g for 20 minutes. The top layers were removed and the sperm concentration and motility of the pellet determined. […]
The proportion of blastocysts were determined on Day 7 (Day 0=fertilization). […]

[4] = gametes treated with PFT-α, zygotes cultured 120 h, P<0.05

For “1 hexadecyl/octadecyl-2-acetyl-sn-glyceryl-3-phosphocholine [PAF]”, the “embryo viability as proportion of embryos that developed to the blastocyst stage” value (mouse embryos [1]) was “increase in embryo viability” and the “proportion of 2-cell IVF embryos that responded to exogenous PAF (intracellular calcium)” value (2-cell embryos) was “substantially reduced”.

For CC[C@H](C)[C@@H]1NC(=O)CNC(=O)[C@@H]2Cc3c([nH]c4cc(O)ccc34)[S+]([O-])C[C@@H](NC(=O)CNC1=O)C(=O)N[C@@H](CC(N)=O)C(=O)N1C[C@H](O)C[C@H]1C(=O)N[C@@H]([C@@H](C)[C@@H](O)CO)C(=O)N2 (stereo in doubt) [α-amanitin], the “p53 mRNA in embryos after incubation from the 2-cell stage” value (p53 mRNA; 2-cell embryos incubated in α-amanitin, after 24 h) was “p53 mRNA negative” and the “qualitative expression of p53 RNA in zygotes” value (p53 mRNA; zygotes incubated in α-amanitin) was “no effect”.

With Cc1ccc(C(=O)Cn2c3c(sc2=N)CCCC3)cc1 [PFT-α, 2-(2-imino-4,5,6,7-tetrahydrobenzothiazol-3-yl)-1-p-tolylethanone] the “fertilisation rate (proportion of oocytes fertilised)” value (sperm and oocytes; PFT-α present during sperm capacitation and IVF, P<0.01) was “dose-dependent increase”, the “mean number of cells present in each embryo (blastocyst)” value (sperm and oocytes; [4]) was “dose-dependent significant increase” and the “proportion of zygotes that developed to the blastocyst stage” value (sperm and oocytes; [4]) was “further dose-dependent increase”. For the same compound, the “proportion of IVF embryos that developed to the blastocyst stage” value (mouse embryos [2]; IVF zygotes cultured 96 h individually, PFT-α dose range 0.1-20 μM) was “significant quadratic effect”, the embryo survival (mouse embryos [2]; between 0.1 and 20 μM added to embryos in culture) was “significant effect on increasing embryo survival” and the “number of cells per normal blastocyst” value (mouse embryos [2]; both ISF and IVF zygotes, cultured 96 h, PFT-α dose range 0.1-20 μM) was “significant improvement”. The “number of cells undergoing apoptosis” value (mouse embryos [2]; both ISF and IVF zygotes, cultured 96 h, PFT-α dose range 0.1-20 M (so in the source)) was “significant decrease”, the “embryo viability as proportion of embryos that developed to the blastocyst stage” value (mouse embryos [1]) was “increase in embryo viability” and the Cells/blastocyst (mouse embryos [3]) was 32 ± 4. The “% blastocyst” value (mouse embryos [3]) was 44% and the “proportion of resulting embryos that developed to morphological blastocysts” value (bovine sperm) was “significant positive effect”.

In the case of “IGF-II: human recombinant insulin-like growth factor-II (expressed in E. Coli), Sigma Chemical Co.”, the Cells/blastocyst (mouse embryos [3]) is reported as 29 ± 2 and the “% blastocyst” value (mouse embryos [3]) is reported as 42%.
